These results are taken from patent US10617664B2, “Brain derived PPARα ligands” (Rush University Medical Center, priority 2015, dated 2020).

One experiment concerns the target T1, PPARα LBD (Homo sapiens, UniProt Q07869).
T1 construct: GST-tagged recombinant PPARα LBD protein; purchased PV4684
T1 sequence (Q07869 239-466 limits assumed): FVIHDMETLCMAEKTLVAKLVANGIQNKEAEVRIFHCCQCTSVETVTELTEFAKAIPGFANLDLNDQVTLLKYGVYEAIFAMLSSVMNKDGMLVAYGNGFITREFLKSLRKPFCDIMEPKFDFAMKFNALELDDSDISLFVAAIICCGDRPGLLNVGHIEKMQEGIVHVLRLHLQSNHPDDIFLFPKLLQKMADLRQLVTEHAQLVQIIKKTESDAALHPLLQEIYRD
Kind of experiment: TR-FRET PPAR-alpha coactivator assay (Lanthascreen). The class given is biochemical. The conditions noted are these: curve fit FIG. 13. The protocol: TR-FRET assay was performed using Lanthascreen TR-FRET PPAR-alpha coactivator assay kit (Cat # PV4684). In this assay, different doses of statin drugs were incubated with GST-tagged recombinant PPARα LBD protein, Terbium (Tb)-tagged anti GST antibody and Fluorescein (FL)-tagged PGC1α as directed in the manufacturer's protocol. The entire reaction was set up in corning 384 well plates by an automated robotic injector. Each plate was centrifuged, incubated in a dark place for 30 mins, and then analyzed “molecular devices analyst” machine equipped with dichroic mirror. The excitation wavelength and emission wavelength were set at 340 nm and 540 nm wavelength respectively.
In general terms: TR-FRET usually uses a lanthanide donor and a delayed reading to cut background.

The subject of experiment [1] is PPRE-driven luciferase activity. As to the kind of experiment: PPRE-luciferase assay in Ppara-null astrocytes transduced with Ppara constructs. It counts as cell-based, mouse. The settings on record: Ppara-null astrocytes (empty vector). How it is done: Astrocytes plated at 60-70% confluence were transfected with tk-PPREx3-Luc, a PPRE-dependent luciferase reporter construct. After 24 h of transfection, cells were treated with different concentrations of HEX (FIG. 10A), OCT (FIG. 10B) and HMB (FIG. 10C) for 4 h followed by monitoring luciferase activity. Under similar experimental condition, MTT was performed to understand the effect of these ligands on cell viability (FIG. 10D, HEX; FIG. 10E, OCT; FIG. 10F, HMB). Results are mean±SD of three independent experiments. ^ap<0.001 vs. control. Ppara-null astrocytes were transduced with lentivirions containing empty vector (FIG. 10G), FL-Ppara (FIG. 10H), Y314D-Ppara (FIG. 10I), Y464D-Ppara (FIG. 10J), and Y314D/Y464D-Ppara (FIG. 10K) for 48 h followed by transfection with tk-PPREx3-Luc. After 24 h of transfection, cells were treated with different doses of HEX, OCT and HMB for 4 h followed by monitoring luciferase activity. PPRE luciferase activity was assayed in Ppara-null astrocytes transduced with lentivirions containing empty vector (FIG. 10L), FL-Ppara (FIG. 10M), Y314D-Ppara (FIG. 10N), Y464D-Ppara (FIG. 10O), and Y314D/Y464D-Ppara (FIG. 10P) after treatment with different doses of WY14643, fenofibrate, and clofibrate. PPRE luciferase activity was assayed in primary hippocampal neurons transduced with lentivirions containing empty vector (FIG. 10Q), FL-Ppara (FIG. 10R), Y314D-Ppara (FIG. 10S), Y464D-Ppara (FIG. 10T), and Y314D/Y464D-Ppara (FIG. 10U) after treatment with different doses of HEX, OCT and HMB. Results are mean±SD of three independent experiments. ^ap<0.001 vs. control.

A further experiment relates to NR2A, GluR1 and CREB. As to the kind of experiment: Immunoblot and immunofluorescence of synaptic molecules in Ppara-null hippocampal neurons. It counts as cell-based, mouse. The conditions noted are these: 5 μM HEX, 5 μM OCT, 50 μM HMB. The protocol: (FIG. 17A) Immunoblot analyses followed by densitometric analyses of NR2A (FIG. 17B), GluR1 (FIG. 17C) and CREB (FIG. 17D) were performed in Ppara-null and WT hippocampal neurons treated with 5 μM HEX, 5 μM OCT and 50 μM HMB. Data are mean±SD of three different experiments. ^ap<0.05 versus WT-control. Immunocytochemical analyses of NR2A (FIG. 17E) and GluR1 (FIG. 17F) in WT and Ppara-null hippocampal neurons treated with HEX, OCT and HMB. Hippocampal neurons were transduced with lenti-GFP for 48 h followed by treatment with different ligands. Immunoblot analyses followed by relative densitometric analyses of CREB in Ppara-null hippocampal neurons transduced with lentivirions containing different Ppara constructs followed by treatment with HEX (FIG. 17G-H), OCT (FIG. 17I-J) and HMB (FIG. 17K-L). Bands were scanned and presented as relative to control (FIG. 17H, HEX; FIG. 17J, OCT; FIG. 17L, HMB). Data are mean±SD of three different experiments. ^ap<0.05 vs FLPpara control.
Isolation of Mouse Hippocampal Neurons: Hippocampal neurons were isolated from fetuses (E18) of pregnant female Ppara-null and strain-matched WT littermate mice as described by us^6,13,35-36 with some modifications. Briefly, dissection and isolation procedures were performed in an ice-cold, sucrose buffer solution (sucrose 0.32 M, Tris 0.025 M; pH 7.4)^37. The skin and the skull were carefully removed from the brain by scissors followed by peeling off the meninges by a pair of fine tweezers. Next, a fine incision was made in the middle line around the circle of Willis and medial temporal lobe was opened up. Hippocampus was isolated as a thin slice of tissue located near the cortical edge of medial temporal lobe. Hippocampal tissues isolated from all fetal pups (n>10) were combined together and homogenized with 1 ml of trypsin for 5 minutes at 37° C. followed by neutralization of trypsin. The single cell suspension of hippocampal tissue was plated in the poly-D-lysine pre-coated 75 mm flask. Five min after plating, the supernatants were carefully removed and replaced with complete neurobasal media. The next day, 10 μM AraC was added to remove glial contamination in the neuronal culture. The pure cultures of hippocampal neurons were allowed to differentiate fully for 9-10 days before treatment^35,36,38.
For whole-cell and tissue lysates, samples were homogenized in RIPA buffer containing protease and phosphatase inhibitors (Sigma), passed 10 times through a 26-gauge needle, rotated end over end for 30 min at 4° C., and centrifuged for 10 min at 18,000×g. The supernatant was aliquoted and stored at −80° C. until use. Protein concentrations were determined using a NanoDrop 2000 (Thermo Fisher), and 15-30 μg sample was heat-denatured and resolved on 10% or 12% polyacrylamide-SDS gels, transferred to 0.45 μm nitrocellulose membranes under semidry conditions (15V for 12 min). Membranes were blocked for 1 h with blocking buffer (Li-Cor), incubated with primary antibodies overnight at 4° C. under shaking conditions, washed, incubated with IR-dye-labeled secondary antibodies (1:17,000; Li-Cor) for 45 min at room temperature, washed, and visualized with the Odyssey Infrared Imaging System (Li-Cor). Blots were converted to grayscale and then binary, analyzed using Fiji, and normalized to appropriate loading controls.

With `CCOC(=O)C(C)(C)C(C)O` (stereo not drawn) [HMB], the response at PPARα LBD was half-maximal at 31.6 µM (EC50). Further, the PPRE-driven luciferase activity result in experiment [1] was “remained unable to induce”. In the experiment with NR2A, GluR1 and CREB, the “expression of CREB” value is reported as “not” and the “expression of NR2A” value was “not”.
With `CCCCCCCCC=CCCCCCCCC(N)=O` [OCT, 9-octadecenamide], the response at PPARα LBD was half-maximal at 4.31 µM (EC50). The PPRE-driven luciferase activity entry in experiment [1] is recorded as “remained unable to induce”. For the same compound, in the experiment with NR2A, GluR1 and CREB, the “expression of CREB” value was “not” and the “expression of NR2A” value is recorded as “not”.
As for `CCCCCCCCCCCCCCCC(N)=O` [HEX, hexadecanamide], on PPARα LBD, the response was half-maximal at 4.36 µM (EC50). For the same compound, the PPRE-driven luciferase activity result in experiment [1] is recorded as “remained unable to induce”. Further, in the experiment with NR2A, GluR1 and CREB, the “expression of CREB” value was “not” and the “expression of NR2A” value is reported as “not”.
